Values quoted from earlier work, collected in US5935604A (Danbiosyst UK Limited, priority 1993, dated 1999).

Experiments:
[1] = man, single doses of 1 mg
[2] = in vivo
[3] = nasal

## Cc1ncccc1C1CCCN1C (stereo not shown) [2-methyl nicotine]
heart
  side-effects on the heart: reduced side-effects on the heart

## CN1CCCC1c1cccnc1 (stereo not shown) [nicotine]
[1]; nasal
  rate of absorption: fast
  time to maximum concentration: ≤ 10 min
[1]
  differences for different nasal treatments: No differences could be found
Regular smokers of 15 or more cigarettes per day, daytime average
  nicotine peak plasma levels: about 35 μg/l
Regular smokers, average
  dose of systemically available nicotine absorbed per cigarette: about 1 mg
Smoking a cigarette
  interval between taking a puff and nicotine arriving in the brain: 10 to 20 s
Two minutes after the first cigarette, 2 min
  plasma nicotine level: about 13 μg/l
[2]
  potential side effects: sleep disturbances and nightmares can result

## Gentamicin
[3]
  absorption with bioadhesive microsphere system: increase the absorption
